Patent US20230357219A1, “PREPARATION OF BIARYL RING-LINKED AROMATIC HETEROCYCLIC DERIVATIVE AS IMMUNOMODULATOR AND USE THEREOF” (SHANGHAI LONGWOOD BIOPHARMACEUTICALS CO., LTD., priority 2020, published 2023)

molecular target: PD-1/PD-L1 (Homo sapiens (Human), UniProt Q9NZQ7); test: PD-1/PD-L1 Homogeneous Time-Resolved Fluorescence (HTRF) Binding Assay; settings: ~3 nM of PD1, 10 nM of PD-L1; 25° C., PBS buffer (pH 7.4)
Method: Assays were performed in standard black 384-well polystyrene plates and a final volume was 20 µL. The inhibitor was first serially diluted with DMSO and added to the wells of the plate, then other reaction components were added. The final concentration of DMSO in the assay was 1%. Assays were performed at 25° C. in PBS buffer (pH 7.4) containing 0.05% Tween-20 and 0.1% BSA. Recombinant human PD-L1 protein (19-238) with a His-tagged at the C-terminus was purchased from AcroBiosystems (PD1-H5229). Recombinant human PD-1 protein (25-167) with an Fc tag at the C-terminus was also purchased from AcroBiosystems (PD1-H5257). The PD-L1 and PD-1 proteins were diluted in assay buffer and then 0.1 µl of the solution was extracted and added to the wells of the plate. Plates were centrifuged and proteins and inhibitors were preincubated for 40 minutes. After incubation, 0.1 µl of HTRF detection buffer containing europium […] labeled anti-human IgG (PerkinElmer-AD0212), Fc-specific and anti-His SureLight®-Allophycocyanin (APC, PerkinElmer-AD0059H) conjugated antibodies was added. After centrifugation, the plates were incubated at 25° C. for 60 minutes. Data was read in a PHERAstar FS plate reader (665 nm/620 nm ratio). Final concentrations in the assay were ~3 nM of PD1, 10 nM of PD-L1, 1 nM of europium anti-human IgG, and 20 nM of anti-His-allophycocyanin. Activity data were fitted using GraphPad Prism 5.0 software to derive IC50 values for inhibitors. The IC50 values of the compounds exemplified in the examples are expressed in the following manner: IC50: + = ≤100 nM; ++ =100 nM-1000 nM; +++ = >1000 nM. The data of the example compounds obtained by PD-1/PD-L1 homogeneous time-resolved fluorescence (HTRF) binding assay described in Example A were provided in Table 1.

Sequence of PD-1/PD-L1 (Q9NZQ7 19-238): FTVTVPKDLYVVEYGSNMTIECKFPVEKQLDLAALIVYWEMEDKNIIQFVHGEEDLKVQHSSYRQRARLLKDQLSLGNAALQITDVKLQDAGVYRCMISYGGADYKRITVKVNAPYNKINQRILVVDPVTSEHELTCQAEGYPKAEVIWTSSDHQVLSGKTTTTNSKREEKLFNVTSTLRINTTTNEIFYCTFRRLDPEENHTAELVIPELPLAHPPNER

| IC50 | Compound |
| --- | --- |
| ≤ 100 nM | COc1nc(O[C@@H]2CCc3c(-c4cccc(Nc5nccc6cc(CN7CC[C@@H](O)C7)cnc56)c4C)cccc32)ccc1CN1CC[C@@H](C(=O)O)C1 [Compound 3] |
| ≤ 100 nM | COc1nc(O[C@@H]2CCc3c(-c4cccc(Nc5nccc6cc(CN7CC[C@@H](C(=O)O)C7)cnc56)c4C)cccc32)cnc1CN1CC[C@@H](O)C1 [Compound 4] |
| ≤ 100 nM | COc1nc(O[C@@H]2CCc3c(-c4cccc(Nc5nccc6cc(CN7CC[C@@H](O)C7)cnc56)c4C)cccc32)cnc1CN1CC[C@@H](C(=O)O)C1 [Compound 5] |
| ≤ 100 nM | COc1nc(O[C@@H]2CCc3c(-c4cccc(-c5nc6cc(CN7CC[C@@H](C(=O)O)C7)cc(C#N)c6o5)c4C)cccc32)ccc1CN1CC[C@@H](O)C1 [Compound 6] |
| ≤ 100 nM | COc1nc(O[C@@H]2CCc3c(-c4cccc(Nc5nccc6cc(CN7CC[C@@H](C(=O)O)C7)cnc56)c4C)cccc32)ccc1CN1CC[C@@H](O)C1 [Compound 7] |
| ≤ 100 nM | COc1nc(O[C@@H]2CCc3c(-c4cccc(-c5nc6cc(CN7CC[C@@H](C(=O)O)C7)cc(C#N)c6o5)c4C)cccc32)cnc1CN1CC[C@@H](O)C1 [Compound 8] |
| ≤ 100 nM | COc1nc(O[C@@H]2CCc3c(-c4cccc(-c5nc6cc(CN7CC[C@@H](O)C7)cc(C#N)c6o5)c4C)cccc32)cnc1CN1CC[C@@H](C(=O)O)C1 [Compound 9] |
| ≤ 100 nM | COc1nc(O[C@@H]2CCc3c(-c4cccc(Nc5nccc6cc(CN7CC[C@@H](C(=O)O)C7)cnc56)c4Cl)cccc32)ccc1CN1CC[C@@H](O)C1 [Compound 10] |
| ≤ 100 nM | COc1nc(O[C@@H]2CCc3c(-c4cccc(Nc5nccc6cc(CN7CC[C@@H](C(=O)O)C7)cnc56)c4Cl)cccc32)cnc1CN1CC[C@@H](O)C1 [Compound 12] |
| ≤ 100 nM | COc1nc(O[C@@H]2CCc3c(-c4cccc(Nc5nccc6cc(CN7CC[C@H](O)C7)cnc56)c4Cl)cccc32)cnc1CN1CC[C@@H](C(=O)O)C1 [Compound 13] |
